{"source": "paper PMC7317715", "about": "“Discovery of a novel fluorescent chemical probe suitable for evaluation of neuropilin‐1 binding of small molecules” (Drug Development Research, 2020)", "key": {"NRP1 [1]": {"system": "NRP1", "design": "method as in Powell et al., 2018", "conditions": "ref Powell et al., 2018; cited from earlier work"}, "NRP1 b1 [2]": {"target": "T1, NRP1 b1 (Homo sapiens, UniProt O14786)", "T1 construct": "Ligands were evaluated against the NRP1‐b1 domain", "T1 sequence (O14786 275-424 limits assumed)": "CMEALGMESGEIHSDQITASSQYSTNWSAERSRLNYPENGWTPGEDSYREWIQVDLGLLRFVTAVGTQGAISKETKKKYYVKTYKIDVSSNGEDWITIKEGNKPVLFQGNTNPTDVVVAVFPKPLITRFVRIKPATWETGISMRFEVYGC", "assay": "FP competition experiment with DS108 probe", "format": "binding", "conditions": "for IC50: FP competition, DS108 0.75 μM, NRP1 b1 7.5 μM, PBS‐P buffer; for Ki: calculated from FP competition IC50 using kinetic equations (Nikolovska‐Coleska et al., 2004)", "procedure": "Competition experiments: FP samples were prepared in the following order—ligand in PBS‐P buffer (20 μl), NRP1‐b1 protein ([…], 20 μl) in PBS‐P buffer, and DS108 probe (1,500 nM, 40 μl) in PBS‐P buffer. FP was measured and normalized to experiment controls (buffer + probe, buffer + probe + protein) using a BMG Labtech PHERAstar® plate reader (filter settings: 485 nm [excitation] and 520 nm [emission]). Background FP was blanked using a PBS‐P buffer only control.\nData processing: raw data were processed using OriginPro curve fitting software to obtain the IC50s and error values shown. A dose–response curve fitting model was utilized for the competition experiments. A web based IC50‐to‐Ki converter that computes Ki values from experimentally determined IC50 values was employed (Cer, Mudunuri, Stephens, & Lebeda, 2009) (https://bioinfo-abcc.ncifcrf.gov/IC50_Ki_Converter/index.php) Each experiment was conducted in triplicate and repeated two times. The statistical reproducibility of this assay was evaluated using the z factor equation (Scheme 2)."}, "NRP1 [3]": {"system": "NRP1", "conditions": "NRP1 inhibition using bt‐VEGF165 binding; ref Jia et al., 2006; read-out: Literature IC50; cited from earlier work"}, "NRP1‐b1 domain": {"target": "T2, NRP1‐b1 domain (Homo sapiens, UniProt O14786)", "T2 construct": "Ligands were evaluated against the NRP1‐b1 domain", "T2 sequence (O14786 275-424 limits assumed)": "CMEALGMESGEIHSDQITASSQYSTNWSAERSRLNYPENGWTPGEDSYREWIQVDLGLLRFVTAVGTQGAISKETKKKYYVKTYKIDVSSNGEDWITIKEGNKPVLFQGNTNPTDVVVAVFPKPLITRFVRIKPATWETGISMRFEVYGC", "assay": "SPR binding of fluorescent probes to immobilised NRP1-b1", "conditions": "for Kd: NRP1‐b1 on CM5 chip, 3% DMSO in PBS‐P, 1:1 binding model, read-out: KD (μM, affinity); for Observed Rmax (% of theoretical): experimentally observed Rmax as percentage of theoretical Rmax (quality control)", "procedure": "All SPR analysis was performed on a BIAcore T200 system using series S CM5 sensor chips. The […] SPR is effectively a stop‐flow instrument, and dissociation from the immobilized protein is initiated by the absence of analyte (ligand) when buffer alone is perfused, this setup allows the determination of on and off rates and equilibrium binding constants. Relatively high DMSO concentrations are normal for SPR experiments to limit solubility problems and minimize nonspecific aggregation. Extensive DMSO controls are included and automatically subtracted from the sensorgrams. Sensorgrams were double referenced by subtracting the response on a reference flow cell and a blank sample. Ligands were evaluated against the NRP1‐b1 domain. NRP1‐b1 was covalently attached to a CM5 chip via amine coupling (Powell et al., 2018) with a surface density of 2,000–3,000 RU. Binding of novel fluorescent probes (0.4–100 μM) were analyzed by multicycle sequential injections (30–120 s association time) followed by undisturbed dissociation (30–60 s). A regeneration step was not used. Peptide stocks were dissolved in dimethyl sulfoxide (DMSO), and the final sample solutions for kinetic affinity experiments contained 3% DMSO in 1× phosphate‐buffered saline P20 buffer (PBS‐P, Cat no 28995084, GE Healthcare Ltd.). DMSO solvent effects were corrected for with eight calibration solutions ([…] in PBS‐P). Equilibrium constants (KD) were calculated using either kinetic or affinity models, assuming simple 1:1 (Langmuir) binding. Data processing and analysis were performed using BIAevaluation and OriginPro software. The theoretical Rmax (the maximal feasible signal between a ligand—analyte pair) for each compound/protein pair was calculated using Scheme 1 (Marquart, 2017).\nThe experimentally observed Rmax was then calculated as a percentage of the theoretical Rmax as a quality control measure."}, "NRP1 b1 [4]": {"target": "T1, NRP1 b1", "assay": "FP saturation binding / protein titration (dynamic range)", "conditions": "for Dynamic window (mP): FP, probe + NRP1‐b1 vs probe only, probe and NRP‐b1 conc per probe as in Table 2; for Kd: KD derived from the 50% signal maximum", "procedure": "Initial experiments were performed using PBS‐P buffer with 3% DMSO in a final volume of 80 μl. The reaction plates or tubes were kept on ice during pipetting.\nSaturation binding: dynamic range and protein titration experiments were performed at probe concentrations selected with guidance from in‐house SPR analysis, literature KD of the untagged compound, and an FP technical resource guide (Invitrogen, 2006). The NRP‐b1 concentrations ranged from 10 nM to 30 μM."}, "5-Flu-RPARPAR [5]": {"target": "5-Flu-RPARPAR"}, "5-Flu-RPARPAR [6]": {"target": "5-Flu-RPARPAR", "assay": "SPR"}}, "note": "Where two headings read alike, the source gives them in different places. Bridge positions count the residues as written; N and C are the ends. Peptide text beside a SMILES is read from it."}
{"molecule": "N=C(N)NCCC[C@H](NC(=O)c1sccc1NS(=O)(=O)c1cc(-c2ccc(CN)cc2)cc2c1OCC2)C(=O)O", "note": "[EG01377]", "values": [{"measurement": "NRP1 antagonistic properties", "setting": "NRP1 [1]", "value": "submicromolar"}, {"measurement": "selectivity for NRP1 over NRP2 receptor", "setting": "NRP1 [1]", "value": "selective for NRP1"}, {"measurement": "IC50", "setting": "NRP1 b1 [2]", "value": "16.8 ± 1.25", "unit": "µM"}, {"measurement": "Ki", "setting": "NRP1 b1 [2]", "value": 7.39, "unit": "µM"}]}
{"molecule": "CC(C)C[C@@H]1NC(=O)[C@H](CCC(N)=O)NC(=O)[C@H](CCCNC(=N)N)NC(=O)[C@H](C)NC(=O)[C@H](CCCCN)NC(=O)[C@@H]2CSSC[C@@H](C(=O)N[C@@H](CC(=O)O)C(=O)N[C@@H](CCCCN)C(=O)N3CCC[C@H]3C(=O)N[C@@H](CCCNC(=N)N)C(=O)N[C@@H](CCCNC(=N)N)C(=O)O)NC(=O)[C@H](CCCNC(=N)N)NC(=O)[C@H](CSSC[C@H](NC(=O)[C@@H](N)CO)C(=O)N[C@@H](CCCCN)C(=O)N[C@@H](CC(N)=O)C(=O)N[C@@H]([C@@H](C)O)C(=O)N[C@@H](CC(=O)O)C(=O)N[C@@H](CO)C(=O)N[C@@H](CCCNC(=N)N)C(=O)N2)NC(=O)[C@H]([C@@H](C)O)NC(=O)[C@H](CCCNC(=N)N)NC(=O)[C@H](CCC(=O)O)NC(=O)[C@H](CC(N)=O)NC(=O)[C@H](CC(C)C)NC(=O)[C@H](CCC(=O)O)NC1=O", "note": "[EG03287] (H-SCKNTDSRCKARQLELNERTCRCDKPRR-OH; disulfide 2-21, 9-23; N-terminus and C-terminus assumed)", "values": [{"measurement": "IC50", "setting": "NRP1 [3]", "value": 1.2, "unit": "µM"}, {"measurement": "IC50", "setting": "NRP1 b1 [2]", "value": "5.77 ± 0.87", "unit": "µM"}, {"measurement": "Ki", "setting": "NRP1 b1 [2]", "value": 2.47, "unit": "µM"}]}
{"molecule": "RPARPAR [reference compound]", "values": [{"measurement": "Kd", "setting": "NRP1‐b1 domain", "value": "69 ± 22", "unit": "µM"}, {"measurement": "Observed Rmax (% of theoretical)", "setting": "NRP1‐b1 domain", "value": 60.61, "unit": "%"}, {"measurement": "Dynamic window (mP)", "setting": "NRP1 b1 [4]", "value": 22.6, "unit": "mP"}, {"measurement": "Kd", "setting": "NRP1 b1 [4]; […]", "value": "1.88 ± 1.4", "unit": "µM"}]}
{"molecule": "N=C(N)NCCC[C@H](NC(=O)c1sccc1NS(=O)(=O)c1cc(-c2ccc(CNC(=O)CCOCCOCCOCCNC(=O)c3ccc(-c4c5ccc(=O)cc-5oc5cc(O)ccc45)c(C(=O)O)c3)cc2)cc2c1OCC2)C(=O)O", "note": "[probe 3, (S)‐5‐((1‐(4‐(7‐(N‐(2‐((1‐carboxy‐4‐guanidinobutyl)carbamoyl)thiophen‐3‐yl)sulfamoyl)‐2,3‐dihydrobenzofuran‐5‐yl)phenyl)‐3‐oxo‐6,9,12‐trioxa‐2‐azatetradecan‐14‐yl)carbamoyl)‐2‐(6‐hydroxy‐3‐oxo‐3H‐xanthen‐9‐yl)benzoic acid]", "values": [{"measurement": "Kd", "setting": "NRP1‐b1 domain", "value": "24.6 ± 6.3", "unit": "µM"}, {"measurement": "Observed Rmax (% of theoretical)", "setting": "NRP1‐b1 domain", "value": 77, "unit": "%"}, {"measurement": "Kd", "setting": "NRP1 b1 [4]; FP protein titration", "value": "4.61 ± 0.19", "unit": "µM"}, {"measurement": "Dynamic window (mP)", "setting": "NRP1 b1 [4]", "value": 30.7, "unit": "mP"}]}
{"molecule": "N=C(N)NCCC[C@H](NC(=O)c1sccc1NS(=O)(=O)c1cc(-c2ccc(CNC(=O)CCOCCOCCOCCOCCOCc3cn(CCCNC(=O)c4ccc5c(c4)C(=O)OC54c5ccc(O)cc5Oc5cc(O)ccc54)nn3)cc2)cc2c1OCC2)C(=O)O", "note": "[probe 4, (3‐((5‐(4‐(1‐(1‐(3‐(3′,6′‐dihydroxy‐3‐oxo‐3H‐spiro(isobenzofuran‐1,9′‐xanthene)‐5‐carboxamido)propyl)‐1H‐1,2,3‐triazol‐4‐yl)‐17‐oxo‐2,5,8,11,14‐pentaoxa‐18‐azanonadecan‐19‐yl)phenyl)‐2,3‐dihydrobenzofuran)‐7‐sulfonamido)thiophene‐2‐carbonyl)‐L‐arginine]", "values": [{"measurement": "Kd", "setting": "NRP1‐b1 domain", "value": "3.3 ± 0.2", "unit": "µM"}, {"measurement": "Observed Rmax (% of theoretical)", "setting": "NRP1‐b1 domain", "value": 43, "unit": "%"}, {"measurement": "Kd", "setting": "NRP1 b1 [4]; FP protein titration", "value": "0.62 ± 0.098", "unit": "µM"}, {"measurement": "Dynamic window (mP)", "setting": "NRP1 b1 [4]", "value": 5.2, "unit": "mP"}]}
{"molecule": "NRP1 b1 b1 domain (protein) FKCMEALGMESGEIHSDQITASSQYSTNWSAERSRLNYPENGWTPGEDSYREWIQVDLGLLRFVTAVGTQGAISKETKKKYYVKTYKIDVSSNGEDWITIKEGNKPVLFQGNTNPTDVVVAVFPKPLITRFVRIKPATWETGISMRFEVYGCKIT", "values": [{"measurement": "Kd", "setting": "5-Flu-RPARPAR [5]", "value": 1.88, "unit": "µM"}, {"measurement": "Kd", "setting": "5-Flu-RPARPAR [6]", "value": 69, "unit": "µM"}]}
